Data on 11 compounds can be found in ChEMBL document CHEMBL1201862, “PubChem BioAssay data set” (2004).

Structures are written as SMILES.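 Five concentrations, 48 hours, 96-well plates. GI50 marks 50% less growth.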 The source made the active and inactive calls. Cut-off read from the data, not from the text of the source: active = GI50 up to about 1.1 µM and inactive = higher. Where a SMILES comes first, the peptide text is derived from it. [ ]: non-standard residue; d: D form. The star is where a group is joined. ξ: configuration not given here. ξF = NC(Cc1ccccc1)C(=O)O; Cbz = O=C(OCc1ccccc1)*; Aib = CC(C)(N)C(=O)O; NHNH2 = NN*

Assay in all cases: NCI tumour cell line growth inhibition, 48 h
The test system of test [1] is A549.
Test [2] deals with ACHN.
For test [3], the system named is BT-549.
In test [4] the test system is CAKI-1.
For test [5], the system named is CCRF-CEM.
Test [6] concerns EKVX.
The subject of test [7] is HT-29.
The test system of test [8] is Hs-578T.
Test [9] has as its system LOX IMVI.
The test system of test [10] is M14.
Test [11] deals with Malme-3M.
Test [12] deals with NCI-H23.
Test [13] concerns OVCAR-8.
Test [14] concerns RPMI-8226.
The subject of test [15] is SF-268.
In test [16] the test system is SK-MEL-2.
Test [17] deals with SK-MEL-5.
The test system of test [18] is SN12C.
Test [19] concerns UACC-62.
Test [20] concerns HL-60.

Consider `O=C1c2ccccc2C(=O)N1C1(C(=O)NC2(C(=O)O)CCCC2)CCCC1`, for which the GI50 in test [1], in [2], in test [3], in test [4], in [5] and in [6] was > 100 µM (inactive) in each case. Also, the GI50 in test [7], in [8], in [9], in test [10], in [11] and in [12] was > 100 µM (inactive) throughout. The GI50 in [13], in [14], in test [15], in test [16], in test [17] and in test [18] was > 100 µM (inactive) in each case. The GI50 in test [19] is > 100 µM (inactive).
`C1CNCCN2CCCNCCN(C1)CC2`: the GI50 was > 100 µM (inactive) in test [1]; > 100 µM (inactive) in test [2]; > 100 µM (inactive) in test [3]; > 100 µM (inactive) in test [4]; 2 µM (inactive) in test [5]; > 100 µM (inactive) in test [6]. Besides, the GI50 in [7], in [8], in test [9], in test [10], in test [11] and in test [12] was > 100 µM (inactive) throughout. Also, the GI50 in test [13], in test [14], in test [15], in [16], in [17] and in [18] was > 100 µM (inactive) in each case. The GI50 in [19] is > 100 µM (inactive).
On to `O=Cc1c(-c2ccccc2)nc2ccccc2c1O`, for which the GI50 in test [1] is 54 µM (inactive); in test [2] it was > 100 µM (inactive); in test [3] it was > 100 µM (inactive); in test [4], 43.4 µM (inactive); in [6], 85.1 µM (inactive); in test [7], 39.9 µM (inactive). Moreover, the GI50 was 30.1 µM (inactive) in test [8]; 42.2 µM (inactive) in test [9]; 68.2 µM (inactive) in test [10]; 54 µM (inactive) in test [11]; 75.7 µM (inactive) in test [12]; 97.5 µM (inactive) in test [13]. Further, the GI50 was 34.7 µM (inactive) in [14]; 59.3 µM (inactive) in [15]; > 100 µM (inactive) in test [16]; 17.9 µM (inactive) in test [17]; 73.8 µM (inactive) in test [18]; 55.8 µM (inactive) in test [19].
Consider `C=C([C@@]1(O)C[C@H]2[C@H](CCC2(OC)OC)[C@@H]2c3ccccc3O[C@@H]21)[Si](C)(C)C`, for which the GI50 in test [1] was > 100 µM (inactive); in test [2] it was > 100 µM (inactive); in test [3] it was > 100 µM (inactive); in test [4], > 100 µM (inactive); in test [6] it was > 100 µM (inactive); in test [20], 25.5 µM (inactive). Further, the GI50 was > 100 µM (inactive) in test [7]; > 100 µM (inactive) in test [8]; > 100 µM (inactive) in test [9]; > 100 µM (inactive) in test [10]; > 100 µM (inactive) in test [13]; 44.4 µM (inactive) in test [14]. Also, the GI50 in [15], in test [16], in test [17], in test [18] and in test [19] was > 100 µM (inactive) each time.
As for `O=S(=O)(O)c1cccc2ccc(O)c(/N=N\c3ccc(S(=O)(=O)c4ccc(/N=N/c5c(O)ccc6cccc(S(=O)(=O)O)c56)cc4)cc3)c12`, the GI50 in test [1], in [2], in test [3], in [4], in test [5] and in [6] was > 100 µM (inactive) throughout. The GI50 in test [20] was < 0.01 µM (active); in [7] it was > 100 µM (inactive); in [8] it was > 100 µM (inactive); in [10], > 100 µM (inactive); in [11] it was > 100 µM (inactive); in test [12], > 100 µM (inactive). Moreover, the GI50 in test [13], in test [14], in test [15], in [16], in [17] and in test [18] was > 100 µM (inactive) throughout. The GI50 in test [19] was > 100 µM (inactive).
Take `CC(C)c1cccc(C(=O)NCCN(C)C)c1[N+](=O)[O-]`: the GI50 in test [1] was 80.2 µM (inactive); in test [2], > 100 µM (inactive); in test [3], 19.5 µM (inactive); in test [4] it was > 100 µM (inactive); in test [5], > 100 µM (inactive); in test [20] it was > 100 µM (inactive). The GI50 in [7], in [8], in [10], in [11], in test [12] and in test [13] was > 100 µM (inactive) throughout. In addition, the GI50 in test [15], in [16], in [17], in test [18] and in test [19] was > 100 µM (inactive) each time.
On to `N#Cc1nc(C2CC2)oc1N`, for which the GI50 in test [1] was > 100 µM (inactive); in [2], > 100 µM (inactive); in test [3], > 100 µM (inactive); in test [4] it was > 100 µM (inactive); in [5], 38.4 µM (inactive); in test [6] it was > 100 µM (inactive). Further, the GI50 in [7] was > 100 µM (inactive); in test [8], > 100 µM (inactive); in test [9], > 100 µM (inactive); in [10] it was > 100 µM (inactive); in [11] it was 94.4 µM (inactive); in test [12] it was > 100 µM (inactive). Besides, the GI50 in [13], in test [14], in [15], in test [16], in test [18] and in test [19] was > 100 µM (inactive) throughout.
`Cc1cn(C2CC(N=[N+]=[N-])C(CO)O2)c(=O)n(CCCCBr)c1=O` (stereo unspecified): the GI50 in [1] is > 100 µM (inactive); in [2], > 100 µM (inactive); in test [3], > 100 µM (inactive); in [4], > 100 µM (inactive); in test [5] it was < 0.01 µM (active); in test [6], > 100 µM (inactive). The GI50 in test [7] is > 100 µM (inactive); in [8], > 100 µM (inactive); in test [9], 89.7 µM (inactive); in test [10], > 100 µM (inactive); in [11] it was > 100 µM (inactive); in test [12], 96.8 µM (inactive). Further, the GI50 in test [13] is > 100 µM (inactive); in test [14], 50.7 µM (inactive); in [15] it was > 100 µM (inactive); in test [16], 61 µM (inactive); in test [18], 59.3 µM (inactive); in [19], > 100 µM (inactive).
Take `Cc1nc(Nc2ccccc2Cl)sc1C(=O)CC(=O)C(N)=O`: the GI50 in test [1] is 41.8 µM (inactive); in test [2], 32.7 µM (inactive); in test [3], > 100 µM (inactive); in test [4] it was > 100 µM (inactive); in test [5], 32.6 µM (inactive); in test [6], 18.2 µM (inactive). The GI50 in [20] was 11.8 µM (inactive); in [7] it was 18.8 µM (inactive); in [8], 59.2 µM (inactive); in [9], 27.4 µM (inactive); in test [10], 75.3 µM (inactive); in [12], 28.2 µM (inactive). Further, the GI50 in [13] was 54.7 µM (inactive); in [14] it was 26.3 µM (inactive); in [15] it was > 100 µM (inactive); in test [16], 35.1 µM (inactive); in [18], 37.8 µM (inactive); in test [19], 35.1 µM (inactive).
Consider `OCC1CCCCN1Cc1nc2cc(Cl)ccc2[nH]1` (stereo unspecified), for which the GI50 in test [1], in test [2], in test [3], in [4], in test [5] and in test [6] was > 100 µM (inactive) in each case. Also, the GI50 in test [20] was > 100 µM (inactive); in test [7], 56.1 µM (inactive); in [8] it was > 100 µM (inactive); in test [10], > 100 µM (inactive); in [11] it was > 100 µM (inactive); in [12], > 100 µM (inactive). The GI50 in [13], in [14], in test [15], in test [16], in test [17] and in test [18] was > 100 µM (inactive) each time. Further, the GI50 in test [19] was > 100 µM (inactive).
Take `CC(C)(NC(=O)OCc1ccccc1)C(=O)NC(Cc1ccccc1)C(=O)NN` (stereo unspecified) (Cbz-[Aib]-[ξF]-NHNH2): the GI50 in test [1], in test [2], in test [3], in test [4], in [5] and in [6] was > 100 µM (inactive) each time. Also, the GI50 in test [7], in test [8], in test [9], in test [10], in [11] and in test [12] was > 100 µM (inactive) in each case. In addition, the GI50 in test [13], in test [14], in test [15], in test [16], in test [17] and in test [18] was > 100 µM (inactive) in each case. For the same compound, the GI50 in test [19] was > 100 µM (inactive).
